Test [1] concerns the target T1, BRD9 bromodomain (Flag-BRD9 P133-K239; Swiss Prot Q9H8M2) (Homo sapiens, UniProt Q9H8M2).
T1 construct: His-Flag-BRD9 (P133-K239); Swiss Prot Q9H8M2; His6 with TEV site (mgsshhhhhhenlyfq/) (N, cleaved yes); made in house
T1 sequence (Q9H8M2 133-239): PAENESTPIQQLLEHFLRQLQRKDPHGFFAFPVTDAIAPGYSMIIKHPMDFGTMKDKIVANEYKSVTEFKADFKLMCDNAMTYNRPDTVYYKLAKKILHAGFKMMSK
The experiment in a line: BRD9 Bromodomain TR-FRET Competition Binding Assay. Particulars: competition with biotinylated BRD9 ligand; 90 minutes at room temperature. As for the experimental part: Procedure: His-Flag-BRD9 (P133-K239; Swiss Prot Q9H8M2; SEQ ID NO:1 mgsshhhhhhenlyfq/gdykddddkgslevlfqg/[…] […]) was cloned, expressed, purified, and then treated with TEV protease. Cleaved His tag was removed by purification. The binding of a biotinylated small molecule ligand of BRD9 was assessed via the LANCE® TR-FRET platform (PerkinElmer), and the compounds were assayed for inhibitory activity against this interaction.
Results: A mixture of biotinylated-ligand and SureLight™ Allophycocyanin-Streptavidin (APC-SA, PerkinElmer AD0201) in 50 mM HEPES (pH 7.4), 50 mM NaCl, 1 mM TCEP (pH 7), 0.01% (v/v) Tween-20, 0.01% (w/v) bovine serum albumin was added to a white 384-well PerkinElmer Proxiplate Plus plate. DMSO or 3-fold serially diluted compounds were then added to the Proxiplate followed by addition of Flag-BRD9. After a 10-minute incubation at room temperature, Eu-W1024 anti-FLAG (PerkinElmer, AD0273) was added. The final reaction mixture that contained 3.75 nM biotinylated ligand, 3 nM Flag-BRD9, 7.5 nM SureLight™ Allophycocyanin-Streptavidin, and 0.2 nM Eu-W1024 anti-FLAG was incubated at room temperature for 90 minutes.
The plates were then read on a PerkinElmer Envision plate reader to determine the ratio of emission at 665 nm over 615 nm. […]
A general note: TR-FRET usually uses a lanthanide donor and a delayed reading to cut background.

The target in test [2] is T2, Nanoluciferase-BRD9 fusion protein (3×FLAG-NLuc-BRD9) in SYO-1 cells (Homo sapiens, UniProt Q9H8M2).
T2 construct: expressed in transfected cells; host or cells: SYO-1
T2 sequence (Q9H8M2 1-597): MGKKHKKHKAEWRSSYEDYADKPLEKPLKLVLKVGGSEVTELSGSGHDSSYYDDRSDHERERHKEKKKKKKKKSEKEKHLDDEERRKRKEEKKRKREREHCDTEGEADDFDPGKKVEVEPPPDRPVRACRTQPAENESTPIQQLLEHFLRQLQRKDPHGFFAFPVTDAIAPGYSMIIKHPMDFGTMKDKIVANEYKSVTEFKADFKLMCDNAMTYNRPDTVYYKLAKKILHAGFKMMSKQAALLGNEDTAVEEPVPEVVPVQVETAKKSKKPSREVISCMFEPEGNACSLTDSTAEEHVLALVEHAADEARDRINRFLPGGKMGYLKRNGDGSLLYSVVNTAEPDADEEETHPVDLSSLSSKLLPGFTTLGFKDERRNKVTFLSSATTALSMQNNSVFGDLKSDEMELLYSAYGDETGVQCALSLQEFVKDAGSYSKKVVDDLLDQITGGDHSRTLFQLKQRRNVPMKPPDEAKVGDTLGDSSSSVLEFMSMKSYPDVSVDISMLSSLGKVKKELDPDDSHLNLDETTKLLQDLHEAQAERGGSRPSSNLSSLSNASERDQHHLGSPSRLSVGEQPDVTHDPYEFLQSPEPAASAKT
The experiment in a line: SYO1 BRD9 NanoLuc Degradation Assay. The test is classed as cell-based. To be noted: Table 6C; SYO-1 cells expressing 3×FLAG-NLuc-BRD9, 6 hours incubation, 1 μM top dose; read-out: SYO1 BRD9-NanoLuc degradation IC50. A digest of the protocol:
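Stable 3×FLAG-NLuc-BRD9 SYO-1 line, 8000 cells/well, dosed day 1 with 10-point 3-fold dilutions (1 μM final top, duplicates) for 6 h. NanoLuc bioluminescence read with Nano-Glo; % inhibition relative to DMSO (high) and 1 μM reference BRD9 degrader (low) controls.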

What is called IC50 is the concentration that gives 50% inhibition. In turn, `CNc1cc2c(-c3cc(OC)c(CN(C)C)c(OC)c3)cn(C)c(=O)c2cn1` [Compound B1, 4-[4-[(dimethylamino)methyl]-3,5-dimethoxyphenyl]-2-methyl-6-(methylamino)-1,2-dihydro-2,7-naphthyridin-1-one] returned an IC50 in test [1] of less than 10 nM. On the same count and under the same terms, the same measure for `COc1cc(-c2cn(C)c(=O)c3cnc(N(C)C)cc23)cc(OC)c1CN(C)C` [Compound B2, 6-(dimethylamino)-4-[4-[(dimethylamino)methyl]-3,5-dimethoxyphenyl]-2-methyl-1,2-dihydro-2,7-naphthyridin-1-one]: less than 10 nM; for `CNc1cc2c(=O)n(C)cc(-c3cc(OC)c(CN(C)C)c(OC)c3)c2cn1` [Compound B3, 4-[4-[(Dimethylamino)methyl]-3,5-dimethoxyphenyl]-2-methyl-7-(methylamino)-1,2-dihydro-2,6-naphthyridin-1-one]: not below 10 nM; for `COc1cc(-c2cn(C)c(=O)c3cnc(N)cc23)cc(OC)c1CN(C)C` [Compound B4, 6-amino-4-[4-[(dimethylamino)methyl]-3,5-dimethoxyphenyl]-2-methyl-1,2-dihydro-2,7-naphthyridin-1-one]: not below 10 nM. For `COc1cc(-c2cn(C)c(=O)c3cc(N)ncc23)cc(OC)c1CN(C)C` [Compound B5, 7-amino-4-(4-((dimethylamino)methyl)-3,5-dimethoxyphenyl)-2-methyl-2,6-naphthyridin-1(2H)-one], the IC50 in test [1] is not below 10 nM.

Regarding `COc1cc(-c2cn(C)c(=O)c3cc(NCC(=O)N(C)C)ncc23)cc(OC)c1CN(C)C` [Compound B6, 2-[(8-[4-[(dimethylamino)methyl]-3,5-dimethoxyphenyl]-6-methyl-5-oxo-2,6-naphthyridin-3-yl)amino]-N,N-dimethylacetamide formic acid], the IC50 in test [1] was not below 10 nM. Regarding `COc1cc(-c2cn(C)c(=O)c3cnc(N4CC(F)(F)C4)cc23)cc(OC)c1CN1CCC(CN2CCC3(CC2)CN(c2ccc4c(c2)C(=O)N(C2CCC(=O)NC2=O)C4)C3)CC1` (stereo not shown) [Compound D291], the DC50 in test [2] is less than 10 nM. Turning to `COc1cc2c(-c3cc(OC)c(CN4CCN(c5ccc6c(c5)C(=O)N(C5CCC(=O)NC5=O)C6)CC4C)c(OC)c3)cn(C)c(=O)c2cn1` (stereo not shown) [Compound D293], the DC50 in test [2] is less than 10 nM.

Regarding `COc1cc(-c2cn(C)c(=O)c3cnc(N4CCC4)cc23)cc(OC)c1C1CCN(c2ccc3c(c2)C(=O)N(C2CCC(=O)NC2=O)C3)CC1` (stereo not shown) [Compound D294], in test [2], the DC50 is less than 10 nM. Same read-out and setting: then `COc1cc2c(-c3cc(OC)c(C4CCN(c5ccc6c(c5)C(=O)N(C5CCC(=O)NC5=O)C6)CC4)c(OC)c3)cn(C)c(=O)c2cn1` (stereo not shown) [Compound D295], with less than 10 nM; and `COc1cc(-c2cn(C)c(=O)c3cnc(N(C)C)cc23)cc(OC)c1CN1CCC(c2ccc3c(c2)C(=O)N(C2CCC(=O)NC2=O)C3)CC1` (stereo not shown) [Compound D296], with less than 10 nM; and `COc1cc(-c2cn(C)c(=O)c3cnc(N(C)C)cc23)cc(OC)c1CN1CCC(c2ccc3c(c2)CN(C2CCC(=O)NC2=O)C3=O)CC1` (stereo not shown) [Compound D297], with less than 10 nM. On the same count and under the same terms, then `COc1cc(-c2cn(C)c(=O)c3cnc(N(C)C)cc23)cc(OC)c1CCN1CCC(CN2CCC3(CC2)CC(Oc2ccc4c(c2)C(=O)N(C2CCC(=O)NC2=O)C4)C3)CC1` (stereo not shown) [Compound D298], with less than 10 nM; and `COc1cc(-c2cn(C)c(=O)c3cnc(C4CC4)cc23)cc(OC)c1CN1CCN(CCC2CCN(c3ccc4c(c3)C(=O)N(C3CCC(=O)NC3=O)C4=O)CC2)CC1` (stereo not shown) [Compound D299], with less than 10 nM; and `COc1cc(-c2cn(C)c(=O)c3cnc(C4CC4)cc23)cc(OC)c1CN1CC(Oc2ccc3c(c2)C(=O)N(C2CCC(=O)NC2=O)C3)C1` (stereo not shown) [Compound D300], with less than 10 nM. The same measure, in the same setting: the same measure for `COc1cc(-c2cn(C)c(=O)c3cnc(C4CC4)cc23)cc(OC)c1CN1CCC(CN2CCC3(CC2)CC(Oc2ccc4c(c2)C(=O)N(C2CCC(=O)NC2=O)C4=O)C3)CC1` (stereo not shown) [Compound D301]: less than 10 nM; for `COc1cc(-c2cn(C)c(=O)c3cnc(C4CC4)cc23)cc(OC)c1CN1CCC(CN2CCC3(CC2)CC(Oc2ccc4c(c2)C(=O)N(C2CCC(=O)NC2=O)C4)C3)CC1` (stereo not shown) [Compound D302]: less than 10 nM. `COc1cc(-c2cn(C)c(=O)c3cnc(C4CC4)cc23)cc(OC)c1CN1CC(CN2CCC3(CC2)CN(c2ccc4c(c2)C(=O)N(C2CCC(=O)NC2=O)C4=O)C3)C1` (stereo not shown) [Compound D303]: the DC50 in test [2] is less than 10 nM. Same read-out and setting: the same measure for `COc1cc(-c2cn(C)c(=O)c3cnc(C4CC4)cc23)cc(OC)c1CN1CCC(CCN2CCN(c3ccc4c(c3)C(=O)N(C3CCC(=O)NC3=O)C4=O)CC2)CC1` (stereo not shown) [Compound D304]: less than 10 nM; for `COc1cc(-c2cn(C)c(=O)c3cnc(C4CC4)cc23)cc(OC)c1CN1CCC(CCN2CCN(c3ccc4c(c3)C(=O)N(C3CCC(=O)NC3=O)C4)CC2)CC1` (stereo not shown) [Compound D305]: less than 10 nM; for `[2H]C([2H])([2H])n1cc(-c2cc(OC)c(CN3CC(CN4CCC5(CC4)CN(c4ccc6c(c4)C(=O)N(C4CCC(=O)NC4=O)C6=O)C5)C3)c(OC)c2)c2cc(C3CC3)ncc2c1=O` (stereo not shown) [Compound D306]: less than 10 nM. With `[2H]C([2H])([2H])n1cc(-c2cc(OC)c(CN3CCC(CN4CCC5(CC4)CC(Oc4ccc6c(c4)C(=O)N(C4CCC(=O)NC4=O)C6=O)C5)CC3)c(OC)c2)c2cc(C3CC3)ncc2c1=O` (stereo not shown) [Compound D307], the DC50 in test [2] is less than 10 nM. Same read-out and setting: the same measure for `COc1cc(-c2cn(C)c(=O)c3cnc(C4COC4)cc23)cc(OC)c1CN1CCN(CCC2CCN(c3ccc4c(c3)C(=O)N(C3CCC(=O)NC3=O)C4=O)CC2)CC1` (stereo not shown) [Compound D308]: less than 10 nM; for `COc1cc(-c2cn(C)c(=O)c3cnc(C(F)(F)F)cc23)cc(OC)c1CN1CCN(CCC2CCN(c3ccc4c(c3)CN(C3CCC(=O)NC3=O)C4=O)CC2)CC1` (stereo not shown) [Compound D309]: less than 10 nM.

Consider `COc1cc(-c2cn(C)c(=O)c3cnc(N4CCC4)cc23)cc(OC)c1CN1CCC2(CC1)CN(c1ccc3c(c1)CN(C1CCC(=O)NC1=O)C3=O)C2` (stereo not shown) [Compound D310], for which the DC50 in test [2] is less than 10 nM. Turning to `COc1cc(-c2cn(C)c(=O)c3cnc(N4CCC4)cc23)cc(OC)c1CN1CC(CN2CCC3(CC2)CN(c2ccc4c(c2)C(=O)N(C2CCC(=O)NC2=O)C4)C3)C1` (stereo not shown) [Compound D311], in test [2], the DC50 was less than 10 nM. Same read-out and setting: the same measure for `COc1cc(-c2cn(C)c(=O)c3cnc(N4CCC4)cc23)cc(OC)c1CN1CCC(c2ccc3c(c2)CN(C2CCC(=O)NC2=O)C3=O)CC1` (stereo not shown) [Compound D312]: less than 10 nM; for `COc1cc(-c2cn(C)c(=O)c3cnc(N4CCC4)cc23)cc(OC)c1CN1CCC(c2ccc3c(c2)C(=O)N(C2CCC(=O)NC2=O)C3)CC1` (stereo not shown) [Compound D313]: less than 10 nM; for `COc1cc(-c2cn(C)c(=O)c3cnc(N4CCOCC4)cc23)cc(OC)c1CN1CC(Oc2ccc3c(c2)CN(C2CCC(=O)NC2=O)C3=O)C1` (stereo not shown) [Compound D314]: less than 10 nM. As for `COc1cc(-c2cn(C)c(=O)c3cnc(C(C)(C)CO)cc23)cc(OC)c1CN1CCC(CN2CCC3(CC2)CC(Oc2ccc4c(c2)CN(C2CCC(=O)NC2=O)C4=O)C3)CC1` (stereo not shown) [Compound D315], the DC50 in test [2] is less than 10 nM. For `COc1cc2c(-c3cc(OC)c(CN4CC(CN5CCC6(CC5)CN(c5ccc7c(c5)C(=O)N(C5CCC(=O)NC5=O)C7)C6)C4)c(OC)c3)cn(C)c(=O)c2cn1` (stereo not shown) [Compound D316], the DC50 in test [2] is less than 10 nM.

Values taken from US12391686B2, “Compounds and uses thereof” (Foghorn Therapeutics Inc., priority 2019, dated 2025).
